Measurements reported in patent US20220380769A1 (priority 2020, published 2022).
In brackets after ≈: the same amount, converted by molar mass. Entries after “also recorded” stand apart in the source; their conditions may differ. Like-named read-outs stand apart in the source and are kept apart here.

Key:
[1] = system: SARS-CoV-2 (strain USA-WA1/2020); experiment: microbe, parasite or virus in culture; format: cell-based
[2] = system: SARS-associated coronavirus Strain FFM1; conditions: Strain FFM1/Caco-2; cited from earlier work
[3] = human; cited from earlier work
[4] = system: SARS-associated coronavirus Strain FFM1; conditions: Strain FFM1/CL-14; cited from earlier work
[5] = system: SARS-CoV Strain v2163; conditions: in vivo, cited from earlier work
[6] = system: SARS coronavirus 2003VA2774; conditions: cited from earlier work
[7] = system: SARS coronavirus Strain 39849; conditions: Strain 39849/Vero E6; cited from earlier work
[8] = system: human CoV strain OC43; conditions: Strain OC43/BS-C-1 Kidney cells (African Green Monkey); inhibition of CPE; cited from earlier work
[9] = cited from earlier work
[10] = Clinical safety and tolerability in humans; format: in vivo, human
From the text: Favorable safety profiles have been seen for intraperitoneal, intravenous, and intranasal routes of administration of tdsRNA.

[11] = system: H5N1 influenza virus; conditions: in vivo; cited from earlier work
[12] = system: normal, human-derived tracheal/bronchial epithelial (TBE) cells
[13] = system: SARS virus (Urbani Strain); conditions: in vivo, cited from earlier work
[14] = system: Ebola Virus; conditions: in vivo, 6 mg/kg
[15] = system: avian H5N1 and H7N9 influenza hemagglutinins (HAs); conditions: in vivo; cited from earlier work
[16] = Synergy of rintatolimod with antiviral and antiproliferative drugs
From the text: These interferons include rIFN-α-2a, rIFN-β-1b, rIFN-γ.

[17] = system: H5N1 influenza viruses; conditions: in vivo; cited from earlier work
[18] = system: Mouse Hepatitis CoV MHV; conditions: Mouse Hepatitis CoV MHV/BALB/c mice/IP; 10 μg/dose; cited from earlier work
[19] = Development of antibodies to the dsRNA in usage
From the text: (§1) Of the tdsRNA of the disclosure, the tdsRNA of formula 1 and formula 5 is preferred. This is because mis-paired regions of base pair hydrogen bonding accelerate chain hydrolysis while preserving biological activity compared to, for example, formula 3 and formula 4. Also formula 1 and formula 5 had decreased toxicity and improved safety compared to the tdsRNA which has an absence of mis-pairing.

[20] = system: TNF-α; experiment: TNF-α induction
From the text: as §1

[21] = system: TLR3; experiment: TLR3 agonist selectivity versus RNA helicase sensors (MDA5, RIG-I); conditions: versus TLR-3 independent pathways (MDA5, RIG-I)
From the text: as §1

## CCC(CC)COC(=O)[C@H](C)N[P@](=O)(OC[C@H]1O[C@@](C#N)(c2ccc3c(N)ncnn23)[C@H](O)[C@@H]1O)Oc1ccccc1 [Remdesivir]
[1]; 0.001 μg/mL
  Log10 CCID50 virus per 0.2 mL: 4.30
[1]; 0.01 μg/mL
  Log10 CCID50 virus per 0.2 mL: 3.67
[1]; 0.1 μg/mL
  Log10 CCID50 virus per 0.2 mL: 3.00
[1]; 1 μg/mL
  Log10 CCID50 virus per 0.2 mL: 3.00
[1]; Severe acute respiratory syndrome coronavirus 2, read-out: EC90 (concentration to reduce virus yield by 1 log10)
  EC90: 0.01 µg/mL (≈ 0.0166 µM)

## NC(=O)c1ncn([C@@H]2O[C@H](CO)[C@@H](O)[C@H]2O)n1 [Ribavirin]
[2]
  EC50: EC50: 4.7 μg/mL
[3]
  clinically achievable serum concentrations: 3.7 µg/mL
[4]
  EC50: EC50: 5.3 μg/mL
[5]
  Survival (mice surviving/total): (3/10) 65
[6]
  IC100: IC100: 5,000 μg/mL
[7]
  EC50: EC50: 50-100 μg/mL

## Polyribosinic-Polyribocytidylic Acid Stabilized with Poly-L-lysine, in Carboxymethylcellulose [Poly ICLC]
[8]
  EC50: EC50: >100 μg/mL

## rIn.r(C12U)n [Rintatolimod]
[9]; 700 mg in an average weight human (70 kg), equivalent to 10 mg/kg
  tolerability of dosage level: generally well-tolerated
[9]; Chronic Fatigue Syndrome (CFS) patients, placebo-controlled trials
  tolerability administered intravenously: generally well-tolerated
[10]; clinical trials, over 1,200 patients
  drug-related deaths: no drug-related deaths
[10]; over 1,200 patients, over 100,000 doses
  tolerability in clinical trials: well-tolerated
[10]; two placebo-controlled, randomized studies
  serious adverse events compared to placebo: no increase
[5]; 10 mg/kg/day
  lung scores and weight loss: significantly reduced
[5]
  Survival: 100%
  Survival (mice surviving/total): 10/10 and (10/10)
  decline of virus in the lungs compared with untreated animals: more rapid decline of virus in the lungs
[11]
  Vaccine specific salivary IgA and serum IgG antibodies: detected after the second immunization
  protection from challenge infection with the homologous virus: completely protected
  serum neutralizing antibody activity against homologous and heterologous H5N1 influenza virus: developed serum neutralizing anti-body activity
[12]; 0.5 mg/mL
  cytotoxic / cellular toxicity: 0%
[12]; 1.5 mg/mL
  cytotoxic / cellular toxicity: 0%
[12]; 4.5 mg/mL
  cytotoxic: 12%
[12]; 10 mg/mL
  cytotoxic: 47%
[13]; ip
  Drug Dose giving reduction of virus lung titers below level of detection on Day 3: 10 mg/kg
[13]
  SARS virus (Urbani Strain) titers in the lungs: Complete inhibition to below detectable levels; also recorded: reduced virus lung titers to below detectable limits
[14]
  Survival: 100%
[15]
  cross-reactive IgA antibody formation against avian H5N1 and H7N9 influenza hemagglutinins: induced cross-reactive IgA antibody formation
  tolerability of combinational use with FluMist: well tolerated
[16]; HIV/AIDS, rIFN-α-2a, rIFN-β-1b, rIFN-γ
  synergy with α, β, and γ interferons, antiviral indication: synergy; also recorded: synergistic
[16]; Influenza (oseltamivir, zanamivir), HIV/AIDS (abacavir, zidovudine, zalcitabine, didanosine, stavudine, efavirenz, indinavir, ritonavir, nelfinavir, amprenavir, ribavirin)
  synergy with small molecule antiviral drugs: synergy; also recorded: synergistic
[16]; interferons (nIFN-α, rIFN-α-2a, nIFN-β, rIFN-β-1b, nIFN-γ), IL-2, Anti-PD-L1
  synergy, antiproliferative (cancer) indications: synergistic
[17]
  antigen specific IgA response in the nasal mucosa: robust antigen specific IgA response
  protection against challenge with homologous and heterologous H5N1 influenza viruses: protected
[18]
  Survival: increased survival

## rIn.r(CxU)n [formula 1]
[19]
  development of antibodies: no development of antibodies
[20]
  TNF-α induction: does not induce TNF-α
[21]
  TLR3 agonist selectivity: selective TLR3 agonist

## rIn.rCn [formula 4]
[20]
  TNF-α induction: high levels
[21]
  TLR3 agonist selectivity: non-selective

## rugged dsRNA [formula 5]
[19]
  development of antibodies: no development of antibodies
[20]
  TNF-α induction: does not induce TNF-α
[21]
  TLR3 agonist selectivity: selective TLR3 agonist
